#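 Where inhibition never reached the appropriate level, the endpoint shown equals the highest concentration tested. Otherwise, values were interpolated linearly from a five-concentration, 48-hour dose response in 96-well plates. Here, GI50 denotes the concentration required for 50% inhibition of growth. TGI is the concentration that stops growth completely.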
# Experiments:
# Assay in all cases: NCI tumour cell line growth inhibition, 48 h
# OVCAR-5 ovarian = test system: OVCAR-5 ovarian
# SN12C renal = test system: SN12C renal
# RXF 393 renal = test system: RXF 393 renal
# SF-268 CNS = test system: SF-268 CNS
# UACC-62 melanoma = test system: UACC-62 melanoma
# SR leukemia = test system: SR leukemia
# CCRF-CEM leukemia = test system: CCRF-CEM leukemia
# NCI-H522 lung = test system: NCI-H522 lung
# T-47D breast = test system: T-47D breast
# IGROV1 ovarian = test system: IGROV1 ovarian
# MCF7 breast = test system: MCF7 breast
# OVCAR-3 ovarian = test system: OVCAR-3 ovarian
# LOX IMVI melanoma = test system: LOX IMVI melanoma
# PC-3 prostate = test system: PC-3 prostate
# ACHN renal = test system: ACHN renal
# OVCAR-8 ovarian = test system: OVCAR-8 ovarian
# SK-OV-3 ovarian = test system: SK-OV-3 ovarian
# NCI-H23 lung = test system: NCI-H23 lung
# OVCAR-4 ovarian = test system: OVCAR-4 ovarian
# SNB-75 CNS = test system: SNB-75 CNS
# MDA-MB-435 = test system: MDA-MB-435
# SNB-19 CNS = test system: SNB-19 CNS
# SK-MEL-5 melanoma = test system: SK-MEL-5 melanoma
# A549 NSCLC = test system: A549 NSCLC
# MDA-MB-231 breast = test system: MDA-MB-231 breast
# SF-539 CNS = test system: SF-539 CNS
# COLO 205 colon = test system: COLO 205 colon
# UO-31 renal = test system: UO-31 renal
# HT29 colon = test system: HT29 colon
# BT-549 breast = test system: BT-549 breast
# RPMI-8226 leukemia = test system: RPMI-8226 leukemia
# HL-60(TB) leukemia = test system: HL-60(TB) leukemia
# HCT-15 colon = test system: HCT-15 colon
# EKVX NSCLC = test system: EKVX NSCLC
# HS 578T breast = test system: HS 578T breast
# NCI-H460 lung = test system: NCI-H460 lung
# TK-10 renal = test system: TK-10 renal
# MALME-3M melanoma = test system: MALME-3M melanoma
# DU-145 prostate = test system: DU-145 prostate
# U251 CNS = test system: U251 CNS
# NCI/ADR-RES ovarian = test system: NCI/ADR-RES ovarian
# K-562 leukemia = test system: K-562 leukemia
# HOP-92 NSCLC = test system: HOP-92 NSCLC
# NCI-H226 lung = test system: NCI-H226 lung
# HOP-62 NSCLC = test system: HOP-62 NSCLC
# 786-0 renal = test system: 786-0 renal
# SK-MEL-28 melanoma = test system: SK-MEL-28 melanoma
# SF-295 CNS = test system: SF-295 CNS
# UACC-257 melanoma = test system: UACC-257 melanoma
# HCC-2998 colon = test system: HCC-2998 colon
# SK-MEL-2 melanoma = test system: SK-MEL-2 melanoma
# KM12 colon = test system: KM12 colon
# MOLT-4 leukemia = test system: MOLT-4 leukemia
# M14 melanoma = test system: M14 melanoma
# SW-620 colon = test system: SW-620 colon
# CAKI-1 renal = test system: CAKI-1 renal
# HCT-116 colon = test system: HCT-116 colon
structure (smiles),measurement,setting,value
O=[N+]([O-])c1ccccc1N/N=C\c1c[nH]c2ccccc12,GI50,OVCAR-5 ovarian,> 58.2 µM
same,TGI,OVCAR-5 ovarian,> 100 µM
same,GI50,SN12C renal,10.2 µM
same,TGI,SN12C renal,> 100 µM
same,GI50,RXF 393 renal,10.7 µM
same,TGI,RXF 393 renal,57.8 µM
same,GI50,SF-268 CNS,9.04 µM
same,TGI,SF-268 CNS,> 100 µM
same,GI50,UACC-62 melanoma,17.1 µM
same,TGI,UACC-62 melanoma,> 100 µM
same,GI50,SR leukemia,3.4 µM
same,TGI,SR leukemia,> 100 µM
same,GI50,CCRF-CEM leukemia,5.1 µM
same,TGI,CCRF-CEM leukemia,> 100 µM
same,GI50,NCI-H522 lung,11.6 µM
same,TGI,NCI-H522 lung,> 100 µM
same,GI50,T-47D breast,3.52 µM
same,TGI,T-47D breast,> 100 µM
same,GI50,IGROV1 ovarian,37.9 nM
same,TGI,IGROV1 ovarian,3.92 µM
same,GI50,MCF7 breast,850 nM
same,TGI,MCF7 breast,> 100 µM
same,GI50,OVCAR-3 ovarian,8.18 µM
same,TGI,OVCAR-3 ovarian,> 64.9 µM
same,GI50,LOX IMVI melanoma,8.81 µM
same,TGI,LOX IMVI melanoma,> 47.6 µM
same,GI50,PC-3 prostate,4.25 µM
same,TGI,PC-3 prostate,> 100 µM
same,GI50,ACHN renal,13.9 µM
same,TGI,ACHN renal,> 67.3 µM
same,GI50,OVCAR-8 ovarian,12 µM
same,TGI,OVCAR-8 ovarian,29.4 µM
same,GI50,SK-OV-3 ovarian,22.4 µM
same,TGI,SK-OV-3 ovarian,98 µM
same,GI50,NCI-H23 lung,16.8 µM
same,TGI,NCI-H23 lung,> 100 µM
same,GI50,OVCAR-4 ovarian,17.8 µM
same,TGI,OVCAR-4 ovarian,> 100 µM
same,GI50,SNB-75 CNS,4.2 µM
same,TGI,SNB-75 CNS,29.8 µM
same,GI50,MDA-MB-435,> 100 µM
same,TGI,MDA-MB-435,> 100 µM
same,GI50,SNB-19 CNS,24.9 µM
same,TGI,SNB-19 CNS,> 100 µM
same,GI50,SK-MEL-5 melanoma,71.4 µM
same,TGI,SK-MEL-5 melanoma,> 100 µM
same,GI50,A549 NSCLC,20.2 µM
same,TGI,A549 NSCLC,> 100 µM
same,GI50,MDA-MB-231 breast,2980 nM
same,TGI,MDA-MB-231 breast,20.5 µM
same,GI50,SF-539 CNS,12.4 µM
same,TGI,SF-539 CNS,31.2 µM
same,GI50,COLO 205 colon,24.5 µM
same,TGI,COLO 205 colon,> 100 µM
same,GI50,UO-31 renal,658 nM
same,TGI,UO-31 renal,> 65.9 µM
same,GI50,HT29 colon,16.8 µM
same,TGI,HT29 colon,> 61.7 µM
same,GI50,BT-549 breast,> 21.5 µM
same,TGI,BT-549 breast,> 100 µM
same,GI50,RPMI-8226 leukemia,47.4 µM
same,TGI,RPMI-8226 leukemia,> 100 µM
same,GI50,HL-60(TB) leukemia,5.56 µM
same,TGI,HL-60(TB) leukemia,> 100 µM
same,GI50,HCT-15 colon,5.68 µM
same,TGI,HCT-15 colon,> 100 µM
same,GI50,EKVX NSCLC,2490 nM
same,TGI,EKVX NSCLC,> 100 µM
same,GI50,HS 578T breast,3.9 µM
same,TGI,HS 578T breast,25.8 µM
same,GI50,NCI-H460 lung,10.3 µM
same,TGI,NCI-H460 lung,> 100 µM
same,GI50,TK-10 renal,15 µM
same,TGI,TK-10 renal,> 72.6 µM
same,GI50,MALME-3M melanoma,28.8 µM
same,TGI,MALME-3M melanoma,> 87.1 µM
same,GI50,DU-145 prostate,27.6 µM
same,TGI,DU-145 prostate,> 100 µM
same,GI50,U251 CNS,10.6 µM
same,TGI,U251 CNS,24.2 µM
same,GI50,NCI/ADR-RES ovarian,8.85 µM
same,TGI,NCI/ADR-RES ovarian,> 100 µM
same,GI50,K-562 leukemia,4.53 µM
same,TGI,K-562 leukemia,> 100 µM
same,GI50,HOP-92 NSCLC,4.45 µM
same,TGI,HOP-92 NSCLC,49.2 µM
same,GI50,NCI-H226 lung,12.6 µM
same,TGI,NCI-H226 lung,> 100 µM
same,GI50,HOP-62 NSCLC,13.8 µM
same,TGI,HOP-62 NSCLC,31.1 µM
same,GI50,786-0 renal,18.8 µM
same,TGI,786-0 renal,> 93.1 µM
same,GI50,SK-MEL-28 melanoma,> 100 µM
same,TGI,SK-MEL-28 melanoma,> 100 µM
same,GI50,SF-295 CNS,9.5 µM
same,TGI,SF-295 CNS,33 µM
same,GI50,UACC-257 melanoma,26.4 µM
same,TGI,UACC-257 melanoma,> 100 µM
same,GI50,HCC-2998 colon,10.9 µM
same,TGI,HCC-2998 colon,> 100 µM
same,GI50,SK-MEL-2 melanoma,26.4 µM
same,TGI,SK-MEL-2 melanoma,> 100 µM
same,GI50,KM12 colon,6.1 µM
same,TGI,KM12 colon,> 100 µM
same,GI50,MOLT-4 leukemia,4.42 µM
same,TGI,MOLT-4 leukemia,> 100 µM
same,GI50,M14 melanoma,34.7 µM
same,TGI,M14 melanoma,> 100 µM
same,GI50,SW-620 colon,17.8 µM
same,TGI,SW-620 colon,> 100 µM
same,GI50,CAKI-1 renal,3.93 µM
same,TGI,CAKI-1 renal,> 100 µM
same,GI50,HCT-116 colon,13.7 µM
same,TGI,HCT-116 colon,> 100 µM

# — PubChem BioAssay (NCI)
